{
  "source": "patent US9011817B2",
  "about": "“Compounds and methods of making compounds” (The Board of Trustees of the Leland Stanford Junior …, priority 2009, dated 2015)",
  "key": {"[1]": {"tested_on": "CCRF-CEM cells", "assay": "Competition of cold 2F-AraG with 8-[3H]-AraG uptake in CCRF-CEM cells", "type": "cell-based", "conditions": "increasing amount of 2F-AraG 1-100 μM, 60 or 120 minutes", "experimental": "FIG. 2.3a illustrates a graph of 5×10^5 CCRF-CEM cells were incubated, in triplicate, with 1 uCi 8H^3-AraG (1 mCi/ml) and increasing amounts of cold 2F-AraG or DMSO for either 60 or 120 minutes. Percent of control uptake was calculated as: measured cpm of sample/cpm accumulated 1 uCi 8[H^3]-AraG control×100.\nWe have successfully synthesized a novel ^18F derivative of 2-deoxyguanosine analog, 9-β-D-arabinofuranosylguanine (18F-AraG), to use as a molecular probe (FIG. 2.1). [^18F]AraG cell uptake was evaluated in leukemia cell line, CCRF-CEM, and was compared with [^3H]Arag cell uptake. […] To determine whether cold derivative 2F-AraG competes with the uptake of 8-[^3H]-AraG, we studied the [^3H]-Arag uptakes by CCRF-CEM, MOLT-4 (Leukemia cell line) and Raji (human Burkitt's lymphoma cell line) and competition with cold 2F-AraG (FIGS. 2.3a and 2.3b). […] Competition assays indicate that cold derivative 2F-Arag competes with the uptake of the 8-[^3H]-AraG, indicating similar uptake pathways."}, "[2]": {"conditions": "cited from earlier work"}, "[3]": {"tested_on": "CCRF-CEM cells", "assay": "[18F]F-AraG cell uptake in CCRF-CEM cells (gamma counter)", "type": "cell-based", "conditions": "for fold more [18F]F-AraG uptake at 10 μCi as compared to 3 μCi: 5×10^5 CCRF-CEM cells", "experimental": "FIG. 2.2 illustrates a graph of 5×10^5 CCRF-CEM cells were labeled with ^18F-AraG (0.6 mCi/ml) for indicated times and doses. Uptake was measured on gamma counter. Bars represent mean of triplicate determinations+/−SEM.\nCells took up ˜2-fold more [^18F]F-AraG when exposed to 10 μCi, at 60 minutes (p=0.008) and at 120 minutes (p=0.001) as compared to 3 μCi. Error bars represent S.E.M.\n(§1) CCRF-CEM (acute lymphoblastic T leukemia cell line procured form ATCC) cells were maintained in RPMI 1640 (Cellgro) supplemented with 100 U penicillin/100 ug streptomycin/ml (Cellgro) and 10% fetal bovine serum (Gibco). 5×10^5 CCRF-CEM cells were plated in 12 well dishes. Cells were allowed to settle for one hour then [^18F]F-AraG was added to each well and incubated at 37° C. for indicated times. Primary T cells were isolated from spleens and thymus of out-bred mice. Briefly, tissues were minced and single cell suspensions made in RPMI supplemented as above. Cells were centrifuged at 300×g for 8 minutes at 4° C. and cell pellets were resuspended in phosphate buffered saline (PBS) supplemented with 0.5% bovine serum albumin (BSA). T cells were purified from the suspensions using Miltenyi Pan T antibodies and columns (Miltenyi Biotec) per manufacturer's directions. Purified T cells were either stimulated with 100 U/ml IL-2 (eBiosciences) for 24 or 48 hours, or 50 nM phorbol myristate acetate (PMA) (Fluka) with 1 μg/mL ionomycin (Sigma) for 48 hours or left unstimulated then exposed to 1 μCi of [^18F]F-AraG/10^6 cells for 60 minutes. All cells were then washed in 1×PBS, lysed and radioactivity of each well was determined by gamma counter for [^18F] samples. All results were done in triplicate and are expressed in counts per minute (CPM), standard errors were determined and student T tests performed."}, "[4]": {"tested_on": "primary T cells", "assay": "[18F]F-AraG uptake in purified primary T cells, stimulated or un-stimulated", "type": "cell-based, mouse", "conditions": "for fold more uptake than un-stimulated primary T cells: 1 μCi, 60 minutes", "experimental": "Error bars represent mean of triplicate determinations+/−SEM., n=4 p=0.14 and 0.003 by two tailed, paired Student T test respectively.\nas §1"}, "[5]": {"assay": "micro PET scans in normal nude mice", "type": "in vivo", "conditions": "initial scans"}},
  "data": [
    {"smiles": "Nc1nc2c(ncn2[C@@H]2O[C@H](CO)[C@@H](O)[C@@H]2F)c(=O)[nH]1", "note": "[2F-AraG, 2′-Deoxy-2′-fluoro-9-β-D-arabinofuranosylguanine]", "values": [
      {"measurement": "effect on [3H]-AraG uptake", "setting": "[1]", "result": "decrease of the [^3H]-AraG uptake"}
    ]},
    {"smiles": "Nc1nc2c(ncn2[C@@H]2O[C@H](CO)[C@@H](O)[C@@H]2O)c(=O)[nH]1", "note": "[AraG, 9-β-D-arabinofuranosylguanine]", "values": [
      {"measurement": "therapeutic serum levels at which neurotoxic side effects are induced in some patients", "setting": "[2]", "result": "~150", "unit": "µM"}
    ]},
    {"smiles": "Nc1nc2c(ncn2[C@@H]2O[C@H](CO)[C@@H](O)[C@@H]2[18F])c(=O)[nH]1", "note": "[[^18F]F-AraG, 2′-Deoxy-2′-[^18F]fluoro-9-β-D-arabinofuranosylguanine]", "values": [
      {"measurement": "fold more [18F]F-AraG uptake at 10 μCi as compared to 3 μCi", "setting": "[3]; 60 minutes, p=0.008", "result": "~2", "unit": "fold"},
      {"measurement": "fold more [18F]F-AraG uptake at 10 μCi as compared to 3 μCi", "setting": "[3]; 120 minutes, p=0.001", "result": "~2", "unit": "fold"},
      {"measurement": "dose dependence of uptake", "setting": "[3]; CCRF-CEM cells", "result": "dose dependent"},
      {"measurement": "time course of uptake", "setting": "[3]; CCRF-CEM cells, 60 or 120 minutes", "result": "majority of the [^18F]F-AraG is taken up by cells within the first hour"},
      {"measurement": "cell uptake (qualitative)", "setting": "[3]; CCRF-CEM leukemia cell line, unactivated", "result": "take up"},
      {"measurement": "fold increase in [18F]F-AraG uptake, cells exposed to 10 μCi compared to 3 μCi", "setting": "[3]; unactivated CCRF-CEM cells, time not stated", "result": 2, "unit": "fold"},
      {"measurement": "cell uptake (qualitative)", "setting": "[4]; activated primary thymocytes / primary T cells", "result": "take up [^18F]F-AraG to an appreciable level"},
      {"measurement": "fold more uptake than un-stimulated primary T cells", "setting": "[4]; stimulated with 50 nM PMA and 1 μg/mL ionomycin, p=0.003", "result": 4.7, "unit": "fold"},
      {"measurement": "fold more uptake than un-stimulated primary T cells", "setting": "[4]; stimulated with 100 U/mL interleukin 2, p=0.14", "result": 1.4, "unit": "fold"},
      {"measurement": "tissue uptake in micro PET", "setting": "[5]", "result": "taken up within the thymus and lymph nodes"}
    ]}
  ]
}
